# Measured values reported in patent US20170320939A1, “COLL2-1 PEPTIDE AND ITS NITRATED FORM AS THERAPEUTIC TARGETS FOR OSTEOARTHRITIS TREATMENT” (Université de Liège, priority 2014, published 2017).
# What was measured:
# Type in all cases: cell-based, human
# VEGF = VEGF mRNA expression by Real Time PCR in OA synovial fibroblast cells; settings: increasing concentrations: Coll2-1 (0.45 and 4.5 nmol) or Coll2-1NO2 (4 and 40 pmol), 24 hours
# Experimental: (§1) 1.3 Treatment of synovial fibroblast cells. Cells were seeded into a six-well plate at the density of 2×10^5 cells/well in 2 ml of CM. When the cells reached confluence, the CM was replaced with 1% serum medium for 24 h to keep the cells quiescent. Cells were incubated for 24 hours with or without peptides Coll2-1 (^108HRGYPGLDG^116; 0.45 and 4.5 nmol) or Coll2-1NO2 (^108HRGYPGLDG-NO2^116; 4 and 40 pmol) at a range of concentrations found in the blood of osteoarthritic patients.
# (§2) 1.4 RNA extraction and Real Time Reverse Transcriptase-Polymerase Chain Reaction (RT PCR). Total RNA were extracted using the RNeasy Mini Kit (Qiagen, Netherlands) and were reverse transcribed with SuperScript III Reverse Transcriptase (Invitrogen, Belgium) according to the manufacturer's instructions. The cDNAs were quantified by real-time quantitative PCR using the Rotor Gene instrument (Qiagen, Venlo, Netherlands) and the SYBR Premix Ex Taq kit (Takara, Verviers, Belgium). The level of gene expression was determined by interpolation with a standard curve. To standardize mRNA levels, HPRT, a house keeping gene, was amplified as an internal control. […]
# TSP1 = TSP1 mRNA expression by Real Time PCR in OA synovial fibroblast cells; settings: increasing concentrations: Coll2-1 (0.45 and 4.5 nmol) or Coll2-1NO2 (4 and 40 pmol), 24 hours
# Experimental: as §1
# 1.4 RNA extraction and Real Time Reverse Transcriptase-Polymerase Chain Reaction (RT PCR). Total RNA were extracted using the RNeasy Mini Kit (Qiagen, Netherlands) and were reverse transcribed with SuperScript III Reverse Transcriptase (Invitrogen, Belgium) according to the manufacturer's instructions. The cDNAs were quantified by real-time quantitative PCR using the Rotor Gene instrument (Qiagen, Venlo, Netherlands) and the SYBR Premix Ex Taq kit (Takara, Verviers, Belgium). The level of gene expression was determined by interpolation with a standard curve. To standardize mRNA levels, HPRT, a house keeping gene, was amplified as an internal control. The oligonucleotide primers sequences were as follow: HPRT forward, 5′-[…]-3′ (SEQ ID NO: 2); HPRT reverse, 5′-TGCCTGACCAAGGAAAGC-3′ (SEQ ID NO: 3); TSP-1 forward, 5′-CAGACCGCATTGGAGATAC-3′ (SEQ ID NO: 4); TSP-1 reverse, 5′-[…]-3′ (SEQ ID NO: 5); VEGF forward, 5′-TGCCTTGCTGCTCTAC-3′ (SEQ ID NO: 6); VEGF reverse, 5′-CACACAGGATGGCTTGAA-3′ (SEQ ID NO: 7); IL-6 forward, 5′-AAACAAATTCGGTACATCCTCG-3′ (SEQ ID NO: 8); IL-6 reverse, 5′-CCA GGC AAG TCT CCT CAT-3′ (SEQ ID NO: 9); IL-8 forward, 5′-GGAACCATCTCACTGTGTGTAA-3′ (SEQ ID NO: 10); IL-8 reverse, 5′-TGGAAAGGTTTGGAGTATGTCT-3′ (SEQ ID NO: 11).
# IL-6 = IL-6 mRNA expression by Real Time PCR in OA synovial fibroblast cells; settings: increasing concentrations of peptide, 24 hours
# Experimental: as §1, §2
sequence,measurement,setting,value
HRGYPGLDG [Coll2-1],VEGF expression,VEGF,tended to increase
same,TSP1 expression,TSP1,decrease
same,IL-6 expression,IL-6,increased
